According to US11578079B2, “SUMO inhibitor compounds and uses thereof” (CITY OF HOPE, priority 2018, dated 2023):
Values belong to the molecule of their own block, whether it stands above or below them.

How the values were obtained:
SUMO = target: T1, SUMO (Homo sapiens, UniProt Q9UBT2); assay: SUMO activity (Table I, biological activities); type: biochemical; parameters: key: + (less active); ++ (active); +++ (most active)
T1 sequence (Q9UBT2 1-640): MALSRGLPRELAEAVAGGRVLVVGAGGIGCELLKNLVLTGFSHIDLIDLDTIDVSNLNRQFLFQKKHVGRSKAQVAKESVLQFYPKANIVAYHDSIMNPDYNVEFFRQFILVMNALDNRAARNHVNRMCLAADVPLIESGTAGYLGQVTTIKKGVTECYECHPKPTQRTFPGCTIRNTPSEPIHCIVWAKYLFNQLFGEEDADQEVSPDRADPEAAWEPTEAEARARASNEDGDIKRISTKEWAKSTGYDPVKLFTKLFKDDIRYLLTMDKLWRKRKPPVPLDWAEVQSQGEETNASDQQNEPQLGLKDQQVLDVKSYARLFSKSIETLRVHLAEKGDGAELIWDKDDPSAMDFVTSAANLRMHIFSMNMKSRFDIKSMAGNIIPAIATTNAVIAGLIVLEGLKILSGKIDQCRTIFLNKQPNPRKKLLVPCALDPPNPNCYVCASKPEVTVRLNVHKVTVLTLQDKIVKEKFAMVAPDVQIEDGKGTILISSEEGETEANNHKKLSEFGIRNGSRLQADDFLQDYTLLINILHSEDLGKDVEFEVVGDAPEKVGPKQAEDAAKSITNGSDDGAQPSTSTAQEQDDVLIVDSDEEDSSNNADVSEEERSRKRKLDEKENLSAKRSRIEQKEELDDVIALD
T1 sequence (Q9UBE0 1-346 partner): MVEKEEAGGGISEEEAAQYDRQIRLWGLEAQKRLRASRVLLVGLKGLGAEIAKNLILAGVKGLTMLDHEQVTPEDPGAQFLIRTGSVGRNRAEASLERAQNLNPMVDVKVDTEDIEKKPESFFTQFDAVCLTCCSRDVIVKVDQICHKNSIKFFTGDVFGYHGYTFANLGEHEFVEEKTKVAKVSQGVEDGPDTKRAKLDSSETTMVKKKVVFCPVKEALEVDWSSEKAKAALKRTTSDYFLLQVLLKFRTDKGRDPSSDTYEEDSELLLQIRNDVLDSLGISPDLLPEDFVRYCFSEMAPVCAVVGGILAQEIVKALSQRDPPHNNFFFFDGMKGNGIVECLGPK

c-Myc = c-Myc activity (Table I, biological activities); parameters: key: + (less active); ++ (active); +++ (most active)

SUMO (SUMO): +++
Structure (SMILES): CCN(CC)CCNC(=O)C1=C(C(=O)OC)C2(C(Cc3ccccc3)Nc3cc(F)cc(Cl)c3)C=CC1O2 (stereo not drawn) [Compound 376]
c-Myc (c-Myc): ++

SUMO (SUMO): ++
Structure (SMILES): COC(=O)C1=C(C(=O)NC2CCN(C(=O)C3CC3)CC2)C2C=CC1(C(Cc1ccccc1)Nc1ccccc1)O2 (stereo not drawn) [Compound 377]
c-Myc (c-Myc): +

SUMO (SUMO): ++
Structure (SMILES): COC(=O)C1=C(C(=O)NC2CCN(C(=O)C3CCN(C)CC3)CC2)C2C=CC1(C(Cc1ccccc1)Nc1ccccc1)O2 (stereo not drawn) [Compound 378]
c-Myc (c-Myc): +

SUMO (SUMO): ++
Structure (SMILES): COC(=O)C1=C(C(=O)NC2CCN(C(=O)c3ccc(C#N)cc3)CC2)C2C=CC1(C(Cc1ccccc1)Nc1ccccc1)O2 (stereo not drawn) [Compound 379]
c-Myc (c-Myc): +

SUMO (SUMO): ++
Structure (SMILES): COC(=O)C1=C(C(=O)NC2CCN(C(=O)c3ccc(Cl)cc3)CC2)C2C=CC1(C(Cc1ccccc1)Nc1ccccc1)O2 (stereo not drawn) [Compound 380]
c-Myc (c-Myc): +

SUMO (SUMO): ++
Structure (SMILES): COC(=O)C1=C(C(=O)NC2CCN(C(=O)c3c(C)cccc3C)CC2)C2C=CC1(C(Cc1ccccc1)Nc1ccccc1)O2 (stereo not drawn) [Compound 381]
c-Myc (c-Myc): +

SUMO (SUMO): ++
Structure (SMILES): COC(=O)C1=C(C(=O)NC2CCN(C(=O)NCC3CCCO3)CC2)C2C=CC1(C(Cc1ccccc1)Nc1ccccc1)O2 (stereo not drawn) [Compound 382]
c-Myc (c-Myc): +

SUMO (SUMO): ++
Structure (SMILES): COC(=O)C1=C(C(=O)NC2CCN(C(=O)c3ccsc3)CC2)C2C=CC1(C(Cc1ccccc1)Nc1ccccc1)O2 (stereo not drawn) [Compound 383]
c-Myc (c-Myc): +

SUMO (SUMO): ++
Structure (SMILES): COC(=O)C1=C(C(=O)NC2CCN(C(=O)NCc3cccnc3)CC2)C2C=CC1(C(Cc1ccccc1)Nc1ccccc1)O2 (stereo not drawn) [Compound 384]
c-Myc (c-Myc): +

SUMO (SUMO): ++
Structure (SMILES): COC(=O)C1=C(C(=O)NC2CCN(C(=O)CN(C)C)CC2)C2C=CC1(C(Cc1ccccc1)Nc1ccccc1)O2 (stereo not drawn) [Compound 385]
c-Myc (c-Myc): +

SUMO (SUMO): ++
Structure (SMILES): COC(=O)C1=C(C(=O)NC2CCN(C(=O)c3cccc(F)c3)CC2)C2C=CC1(C(Cc1ccccc1)Nc1ccccc1)O2 (stereo not drawn) [Compound 386]
c-Myc (c-Myc): +

SUMO (SUMO): ++
Structure (SMILES): COC(=O)C1=C(C(=O)NC2CCN(C(=O)Cc3ccccc3)CC2)C2C=CC1(C(Cc1ccccc1)Nc1ccccc1)O2 (stereo not drawn) [Compound 387]
c-Myc (c-Myc): +

SUMO (SUMO): +
Structure (SMILES): COC(=O)C1=C(C(=O)N(C)CCN(C)C)C2C=CC1(C(Cc1ccccc1)Nc1ccccc1)O2 (stereo not drawn) [Compound 388]
c-Myc (c-Myc): +

SUMO (SUMO): ++
Structure (SMILES): COC(=O)C1=C(C(=O)NCCCN(C)C)C2C=CC1(C(Cc1ccccc1)Nc1ccccc1)O2 (stereo not drawn) [Compound 389]
c-Myc (c-Myc): +

SUMO (SUMO): ++
Structure (SMILES): COC(=O)C1=C(C(=O)NC2CCN(C(=O)c3cncnc3)CC2)C2C=CC1(C(Cc1ccccc1)Nc1ccccc1)O2 (stereo not drawn) [Compound 390]
c-Myc (c-Myc): +

SUMO (SUMO): ++
Structure (SMILES): COC(=O)C1=C(C(=O)NC2CCN(C(=O)c3ccccn3)CC2)C2C=CC1(C(Cc1ccccc1)Nc1ccccc1)O2 (stereo not drawn) [Compound 391]
c-Myc (c-Myc): +

SUMO (SUMO): ++
Structure (SMILES): COC(=O)C1=C(C(=O)NC2CCN(C(=O)c3ccc(Cl)s3)CC2)C2C=CC1(C(Cc1ccccc1)Nc1ccccc1)O2 (stereo not drawn) [Compound 392]
c-Myc (c-Myc): +

SUMO (SUMO): ++
Structure (SMILES): COC(=O)C1=C(C(=O)NCCNS(=O)(=O)c2ccccc2)C2C=CC1(C(Cc1ccccc1)Nc1ccccc1)O2 (stereo not drawn) [Compound 394]
c-Myc (c-Myc): +

SUMO (SUMO): ++
Structure (SMILES): COC(=O)C1=C(C(=O)NCCNC(=O)Nc2ccccc2)C2C=CC1(C(Cc1ccccc1)Nc1ccccc1)O2 (stereo not drawn) [Compound 395]
c-Myc (c-Myc): +

The remaining lines, values behind:

Structure (SMILES): COC(=O)C1=C(C(=O)NNc2cc(C(F)(F)F)cc(C(F)(F)F)c2)C2(C(Cc3ccccc3)Nc3cc(F)cc(F)c3)C=CC1O2 (stereo not drawn) [Compound 316]
SUMO (SUMO): ++
c-Myc (c-Myc): +

Structure (SMILES): COC(=O)C1=C(C(=O)NNc2cc(C(F)(F)F)cc(C(F)(F)F)c2)C2C=CC1(C(Cc1ccccc1)Nc1cc(F)cc(F)c1)O2 (stereo not drawn) [Compound 317]
SUMO (SUMO): +
c-Myc (c-Myc): +

Structure (SMILES): COC(=O)C1=C(C(N)=O)C2C=CC1(C(Cc1ccccc1)Nc1cccc(Oc3ccccc3)c1)O2 (stereo not drawn) [Compound 319]
SUMO (SUMO): +++
c-Myc (c-Myc): +

Structure (SMILES): COC(=O)C1=C(C(=O)NC2CCN(C)CC2)C2C=CC1(C(Cc1ccccc1)Nc1cccc(Oc3ccccc3)c1)O2 (stereo not drawn) [Compound 320]
SUMO (SUMO): +++
c-Myc (c-Myc): ++

Structure (SMILES): COC(=O)C1=C(C(=O)Nc2ccc(OC)cc2)C2C=CC1(C(Cc1ccccc1)Nc1cccc(Oc3ccccc3)c1)O2 (stereo not drawn) [Compound 321]
SUMO (SUMO): +++
c-Myc (c-Myc): +

Structure (SMILES): COC(=O)C1=C(C(=O)NC2CCN(C(C)C)CC2)C2C=CC1(C(Cc1ccccc1)Oc1ccccc1)O2 (stereo not drawn) [Compound 324]
SUMO (SUMO): ++
c-Myc (c-Myc): ++

Structure (SMILES): COC(=O)C1=C(C(=O)Nc2ccc(OC)cc2)C2C=CC1(C(Cc1ccccc1)Oc1ccccc1)O2 (stereo not drawn) [Compound 325]
SUMO (SUMO): ++
c-Myc (c-Myc): ++

Structure (SMILES): COC(=O)C1=C(C(=O)NCCN2CCOCC2)C2C=CC1(C(Cc1ccccc1)Oc1ccccc1)O2 (stereo not drawn) [Compound 326]
SUMO (SUMO): ++
c-Myc (c-Myc): ++

Structure (SMILES): CCOC(=O)C1=C(C(=O)NC2CCN(C)CC2)C2C=CC1(C(Cc1ccccc1)Nc1ccc(F)cc1F)O2 (stereo not drawn) [Compound 329]
SUMO (SUMO): +++
c-Myc (c-Myc): ++

Structure (SMILES): COC(=O)C1=C(C(=O)Nc2ccc(C)nc2)C2C=CC1(C(Cc1ccccc1)Oc1ccccc1)O2 (stereo not drawn) [Compound 333]
SUMO (SUMO): +
c-Myc (c-Myc): +

Structure (SMILES): CCOC(=O)C1=C(C(=O)NC2CCN(C)CC2)C2CCC1(C(Cc1ccccc1)Nc1ccc(F)cc1F)O2 (stereo not drawn) [Compound 345]
SUMO (SUMO): +
c-Myc (c-Myc): +

Structure (SMILES): COC(=O)C1=C(C(=O)Nc2ccc(C)c(F)c2)C2C=CC1(C(Cc1ccccc1)Nc1cc(F)cc(Cl)c1)O2 (stereo not drawn) [Compound 348]
SUMO (SUMO): ++
c-Myc (c-Myc): +

Structure (SMILES): COC(=O)C1=C(C(=O)Nc2ccc(C)nc2)C2CCC1(C(Cc1ccccc1)Nc1ccccc1)O2 (stereo not drawn) [Compound 349]
SUMO (SUMO): +
c-Myc (c-Myc): +

Structure (SMILES): COC(=O)C1=C(C(=O)Nc2ccc(OC)cc2)C2CCC1(C(Cc1ccccc1)Oc1ccccc1)O2 (stereo not drawn) [Compound 350]
SUMO (SUMO): +
c-Myc (c-Myc): +

Structure (SMILES): COC(=O)C1=C(C(=O)Nc2ccc(C)c(F)c2)C2C=CC1(C(Cc1ccccc1)Nc1ccccc1F)O2 (stereo not drawn) [Compound 351]
SUMO (SUMO): +++
c-Myc (c-Myc): +

Structure (SMILES): COC(=O)C1=C(C(=O)Nc2ccccc2OC)C2C=CC1(C(Cc1ccccc1)Nc1ccccc1)O2 (stereo not drawn) [Compound 352]
SUMO (SUMO): ++
c-Myc (c-Myc): +

Structure (SMILES): COC(=O)C1=C(C(=O)Nc2ccc(OC)cc2OC)C2C=CC1(C(Cc1ccccc1)Nc1ccccc1)O2 (stereo not drawn) [Compound 353]
SUMO (SUMO): +
c-Myc (c-Myc): +

Structure (SMILES): COC(=O)C1=C(C(=O)Nc2c(C)cccc2C)C2C=CC1(C(Cc1ccccc1)Nc1ccccc1)O2 (stereo not drawn) [Compound 354]
SUMO (SUMO): +
c-Myc (c-Myc): +

Structure (SMILES): COC(=O)C1=C(C(=O)NC2CCN(S(=O)(=O)c3ccccc3)CC2)C2C=CC1(C(Cc1ccccc1)Nc1ccccc1)O2 (stereo not drawn) [Compound 358]
SUMO (SUMO): +
c-Myc (c-Myc): +

Structure (SMILES): COC(=O)C1=C(C(=O)Nc2cccc(F)c2C)C2C=CC1(C(Cc1ccccc1)Nc1ccccc1)O2 (stereo not drawn) [Compound 359]
SUMO (SUMO): ++
c-Myc (c-Myc): +

Structure (SMILES): COC(=O)C1=C(C(=O)Nc2ccccc2C)C2C=CC1(C(Cc1ccccc1)Nc1ccccc1)O2 (stereo not drawn) [Compound 360]
SUMO (SUMO): ++
c-Myc (c-Myc): +

Structure (SMILES): COC(=O)C1=C(C(=O)NC2CCN(S(C)(=O)=O)CC2)C2C=CC1(C(Cc1ccccc1)Nc1ccccc1)O2 (stereo not drawn) [Compound 361]
SUMO (SUMO): ++
c-Myc (c-Myc): +

Structure (SMILES): COC(=O)C1=C(C(=O)NC2CCN(C(C)C)CC2)C2CCC1(C(Cc1ccccc1)Nc1ccccc1)O2 (stereo not drawn) [Compound 366]
SUMO (SUMO): +
c-Myc (c-Myc): +

Structure (SMILES): COCCN1CCC(NC(=O)C2=C(C(=O)OC)C3(C(Cc4ccccc4)Nc4ccccc4)CCC2O3)CC1 (stereo not drawn) [Compound 367]
SUMO (SUMO): +
c-Myc (c-Myc): +

Structure (SMILES): COC(=O)C1=C(C(=O)NC2CCN(C(C)=O)CC2)C2CCC1(C(Cc1ccccc1)Nc1ccccc1)O2 (stereo not drawn) [Compound 368]
SUMO (SUMO): +
c-Myc (c-Myc): +

Structure (SMILES): COC(=O)C1=C(C(=O)NC2CCN(Cc3ccccc3)CC2)C2CCC1(C(Cc1ccccc1)Nc1ccccc1)O2 (stereo not drawn) [Compound 369]
SUMO (SUMO): +
c-Myc (c-Myc): +

Structure (SMILES): COC(=O)C1=C(C(=O)NC2CCN(C(=O)c3ccc(F)cc3)CC2)C2CCC1(C(Cc1ccccc1)Nc1ccccc1)O2 (stereo not drawn) [Compound 370]
SUMO (SUMO): +
c-Myc (c-Myc): +

Structure (SMILES): COC(=O)C1=C(C(=O)Nc2ccc(N3CCN(C)CC3)cc2)C2CCC1(C(Cc1ccccc1)Nc1ccccc1)O2 (stereo not drawn) [Compound 371]
SUMO (SUMO): +
c-Myc (c-Myc): +

Structure (SMILES): CCN(CC)CCNC(=O)C1=C(C(=O)OC)C2(C(Cc3ccccc3)Nc3ccc(F)cc3)C=CC1O2 (stereo not drawn) [Compound 375]
SUMO (SUMO): ++
c-Myc (c-Myc): +
